Key:
GIST patients = assay: Example 2 study: treatment-emergent adverse events; type: in vivo, human
Procedure: Grade 3 or 4 treatment-emergent adverse events (TEAEs) in >5% of patients were lipase increased (18%; n=33), anemia (11%; n=20), hypertension (7%; n=13) and abdominal pain (6%; n=11). 13% of patients (n=24) experienced TEAEs leading to study treatment discontinuation, 17% of patients (n=31) experienced TEAEs leading to dose reduction and 49% of patients (n=88) had TEAEs leading to study drug interruption. Table 3 lists TEAEs >10% for GIST patients treated with ≥100 mg of ripretinib daily.

CYP2C8 = target: T1, CYP2C8 (Homo sapiens, UniProt P10632); assay: Contribution of CYP enzymes to metabolism, in vitro data; type: in vitro ADME; details: base model, based on in vitro data
T1 sequence (P10632 1-490): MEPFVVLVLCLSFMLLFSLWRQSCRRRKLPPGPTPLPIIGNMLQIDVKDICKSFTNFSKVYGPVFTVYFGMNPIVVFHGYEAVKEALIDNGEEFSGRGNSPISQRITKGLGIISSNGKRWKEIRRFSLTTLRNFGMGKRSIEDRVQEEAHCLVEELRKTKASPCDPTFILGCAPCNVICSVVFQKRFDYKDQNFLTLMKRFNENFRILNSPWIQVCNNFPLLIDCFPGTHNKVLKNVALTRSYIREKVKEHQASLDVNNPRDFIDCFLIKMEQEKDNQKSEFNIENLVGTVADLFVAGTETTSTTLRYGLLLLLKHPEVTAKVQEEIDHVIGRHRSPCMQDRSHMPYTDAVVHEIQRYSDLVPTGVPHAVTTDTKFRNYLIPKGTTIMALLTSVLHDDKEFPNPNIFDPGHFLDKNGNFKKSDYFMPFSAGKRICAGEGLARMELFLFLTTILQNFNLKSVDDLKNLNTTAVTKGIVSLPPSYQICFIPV
From the text: A PBPK model that included a mechanistic absorption model was developed.

[1] = Coadministration with pantoprazole (proton-pump inhibitor); type: in vivo, human; details: 40 mg QD pantoprazole with 150 mg QD ripretinib
Procedure: The effect of a proton-pump inhibitor on the exposure of ripretinib was evaluated.

[2] = ≥100 mg daily, col c2 (no head; Grade 3 or 4)
[3] = ≥100 mg daily, col c3 (no head; c1+c2)

CCn1c(=O)c(-c2cc(NC(=O)Nc3ccccc3)c(F)cc2Br)cc2cnc(NC)cc21 [ripretinib]
tolerability (GIST patients; GIST patients ≥100 mg daily): generally well tolerated | Grade 3 or 4 TEAE abdominal pain (GIST patients; ≥100 mg daily): 6% | Grade 3 or 4 TEAE anemia (GIST patients; ≥100 mg daily): 11% | Grade 3 or 4 TEAE hypertension (GIST patients; ≥100 mg daily): 7% | Grade 3 or 4 TEAE lipase increased (GIST patients; ≥100 mg daily): 18% | patients with TEAEs leading to dose reduction (GIST patients; ≥100 mg daily): 17% | patients with TEAEs leading to study drug interruption (GIST patients; ≥100 mg daily): 49% | patients with TEAEs leading to study treatment discontinuation (GIST patients; ≥100 mg daily): 13% | TEAE: Abdominal pain (GIST patients; ≥100 mg daily, col c1): 33 (18%) | TEAE: Actinic keratosis (GIST patients; ≥100 mg daily, col c1): 25 (14%) | TEAE: Alopecia (GIST patients; ≥100 mg daily, col c1): 102 (57%) | TEAE: Amylase increased (GIST patients; ≥100 mg daily, col c1): 19 (11%) | TEAE: Anemia (GIST patients; ≥100 mg daily, col c1): 18 (10%) | TEAE: Arthralgia (GIST patients; ≥100 mg daily, col c1): 40 (22%) | TEAE: Back Pain (GIST patients; ≥100 mg daily, col c1): 30 (17%) | TEAE: Blood bilirubin increase (GIST patients; ≥100 mg daily, col c1): 16 (9%) | TEAE: Blood creatine phosphokinase increased (GIST patients; ≥100 mg daily, col c1): 13 (7%) | TEAE: Constipation (GIST patients; ≥100 mg daily, col c1): 67 (37%) | TEAE: Cough (GIST patients; ≥100 mg daily, col c1): 37 (21%) | TEAE: Decreased appetite (GIST patients; ≥100 mg daily, col c1): 60 (34%) | TEAE: Diarrhea (GIST patients; ≥100 mg daily, col c1): 50 (28%) | TEAE: Dizziness (GIST patients; ≥100 mg daily, col c1): 29 (16%) | TEAE: Dry skin (GIST patients; ≥100 mg daily, col c1): 37 (21%) | TEAE: Dysgeusia (GIST patients; ≥100 mg daily, col c1): 20 (11%) | TEAE: Dyspnea (GIST patients; ≥100 mg daily, col c1): 32 (18%) | TEAE: Fatigue (GIST patients; ≥100 mg daily, col c1): 94 (53%) | TEAE: Headache (GIST patients; ≥100 mg daily, col c1): 33 (18%) | TEAE: Hypertension (GIST patients; ≥100 mg daily, col c1): 25 (14%) | TEAE: Hypokalaemia (GIST patients; ≥100 mg daily, col c1): 21 (12%) | TEAE: Hypomagnesaemia (GIST patients; ≥100 mg daily, col c1): 18 (10%) | TEAE: Hypophosphataemia (GIST patients; ≥100 mg daily, col c1): 17 (10%) | TEAE: Insomnia (GIST patients; ≥100 mg daily, col c1): 21 (12%) | TEAE: Lipase increased (GIST patients; ≥100 mg daily, col c1): 18 (10%) | TEAE: Muscle spasms (GIST patients; ≥100 mg daily, col c1): 47 (26%) | TEAE: Myalgia (GIST patients; ≥100 mg daily, col c1): 79 (44%) | TEAE: Nausea (GIST patients; ≥100 mg daily, col c1): 77 (43%) | TEAE: Pain in extremity (GIST patients; ≥100 mg daily, col c1): 18 (10%) | TEAE: Palmar-plantar erythrodysaesthesia syndrome (GIST patients; ≥100 mg daily, col c1): 71 (40%) | TEAE: Pruritus (GIST patients; ≥100 mg daily, col c1): 18 (10%) | TEAE: Rash (GIST patients; ≥100 mg daily, col c1): 27 (15%) | TEAE: Rash maculo-papular (GIST patients; ≥100 mg daily, col c1): 18 (10%) | TEAE: Seborrhoeic keratosis (GIST patients; ≥100 mg daily, col c1): 21 (12%) | TEAE: Skin papilloma (GIST patients; ≥100 mg daily, col c1): 17 (10%) | TEAE: Upper respiratory tract infection (GIST patients; ≥100 mg daily, col c1): 18 (10%) | TEAE: Urinary tract infection (GIST patients; ≥100 mg daily, col c1): 16 (9%) | TEAE: Vision blurred (GIST patients; ≥100 mg daily, col c1): 17 (10%) | TEAE: Vomiting (GIST patients; ≥100 mg daily, col c1): 42 (24%) | TEAE: Weight decreased (GIST patients; ≥100 mg daily, col c1): 51 (29%) | TEAE: Abdominal pain (GIST patients; [2]): 11 (6%) | TEAE: Actinic keratosis (GIST patients; [2]): 0 (0%) | TEAE: Alopecia (GIST patients; [2]): 0 (0%) | TEAE: Amylase increased (GIST patients; [2]): 2 (1%) | TEAE: Anemia (GIST patients; [2]): 20 (11%) | TEAE: Arthralgia (GIST patients; [2]): 0 (0%) | TEAE: Back Pain (GIST patients; [2]): 2 (1%) | TEAE: Blood bilirubin increase (GIST patients; [2]): 5 (3%) | TEAE: Blood creatine phosphokinase increased (GIST patients; [2]): 5 (3%) | TEAE: Constipation (GIST patients; [2]): 0 (0%) | TEAE: Cough (GIST patients; [2]): 0 (0%) | TEAE: Decreased appetite (GIST patients; [2]): 2 (1%) | TEAE: Diarrhea (GIST patients; [2]): 3 (2%) | TEAE: Dizziness (GIST patients; [2]): 0 (0%) | TEAE: Dry skin (GIST patients; [2]): 0 (0%) | TEAE: Dysgeusia (GIST patients; [2]): 0 (0%) | TEAE: Dyspnea (GIST patients; [2]): 4 (2%) | TEAE: Fatigue (GIST patients; [2]): 4 (2%) | TEAE: Headache (GIST patients; [2]): 1 (1%) | TEAE: Hypertension (GIST patients; [2]): 13 (7%) | TEAE: Hypokalaemia (GIST patients; [2]): 5 (3%) | TEAE: Hypomagnesaemia (GIST patients; [2]): 0 (0%) | TEAE: Hypophosphataemia (GIST patients; [2]): 8 (5%) | TEAE: Insomnia (GIST patients; [2]): 0 (0%) | TEAE: Lipase increased (GIST patients; [2]): 33 (18%) | TEAE: Muscle spasms (GIST patients; [2]): 0 (0%) | TEAE: Myalgia (GIST patients; [2]): 0 (0%) | TEAE: Nausea (GIST patients; [2]): 1 (1%) | TEAE: Pain in extremity (GIST patients; [2]): 1 (1%) | TEAE: Palmar-plantar erythrodysaesthesia syndrome (GIST patients; [2]): 1 (1%) | TEAE: Pruritus (GIST patients; [2]): 0 (0%) | TEAE: Rash (GIST patients; [2]): 0 (0%) | TEAE: Rash maculo-papular (GIST patients; [2]): 0 (0%) | TEAE: Seborrhoeic keratosis (GIST patients; [2]): 0 (0%) | TEAE: Skin papilloma (GIST patients; [2]): 0 (0%) | TEAE: Upper respiratory tract infection (GIST patients; [2]): 0 (0%) | TEAE: Urinary tract infection (GIST patients; [2]): 4 (2%) | TEAE: Vision blurred (GIST patients; [2]): 0 (0%) | TEAE: Vomiting (GIST patients; [2]): 2 (1%) | TEAE: Weight decreased (GIST patients; [2]): 1 (1%) | TEAE: Abdominal pain (GIST patients; [3]): 44 (25%) | TEAE: Actinic keratosis (GIST patients; [3]): 25 (14%) | TEAE: Alopecia (GIST patients; [3]): 102 (57%) | TEAE: Amylase increased (GIST patients; [3]): 21 (12%) | TEAE: Anemia (GIST patients; [3]): 38 (21%) | TEAE: Arthralgia (GIST patients; [3]): 40 (22%) | TEAE: Back Pain (GIST patients; [3]): 32 (18%) | TEAE: Blood bilirubin increase (GIST patients; [3]): 21 (12%) | TEAE: Blood creatine phosphokinase increased (GIST patients; [3]): 18 (10%) | TEAE: Constipation (GIST patients; [3]): 67 (37%) | TEAE: Cough (GIST patients; [3]): 37 (21%) | TEAE: Decreased appetite (GIST patients; [3]): 62 (35%) | TEAE: Diarrhea (GIST patients; [3]): 53 (30%) | TEAE: Dizziness (GIST patients; [3]): 29 (16%) | TEAE: Dry skin (GIST patients; [3]): 37 (21%) | TEAE: Dysgeusia (GIST patients; [3]): 20 (11%) | TEAE: Dyspnea (GIST patients; [3]): 36 (20%) | TEAE: Fatigue (GIST patients; [3]): 98 (55%) | TEAE: Headache (GIST patients; [3]): 34 (19%) | TEAE: Hypertension (GIST patients; [3]): 38 (21%) | TEAE: Hypokalaemia (GIST patients; [3]): 26 (15%) | TEAE: Hypomagnesaemia (GIST patients; [3]): 18 (10%) | TEAE: Hypophosphataemia (GIST patients; [3]): 25 (14%) | TEAE: Insomnia (GIST patients; [3]): 21 (12%) | TEAE: Lipase increased (GIST patients; [3]): 51 (29%) | TEAE: Muscle spasms (GIST patients; [3]): 47 (26%) | TEAE: Myalgia (GIST patients; [3]): 79 (44%) | TEAE: Nausea (GIST patients; [3]): 78 (44%) | TEAE: Pain in extremity (GIST patients; [3]): 19 (11%) | TEAE: Palmar-plantar erythrodysaesthesia syndrome (GIST patients; [3]): 72 (40%) | TEAE: Pruritus (GIST patients; [3]): 18 (10%) | TEAE: Rash (GIST patients; [3]): 27 (15%) | TEAE: Rash maculo-papular (GIST patients; [3]): 18 (10%) | TEAE: Seborrhoeic keratosis (GIST patients; [3]): 21 (12%) | TEAE: Skin papilloma (GIST patients; [3]): 17 (10%) | TEAE: Upper respiratory tract infection (GIST patients; [3]): 18 (10%) | TEAE: Urinary tract infection (GIST patients; [3]): 20 (11%) | TEAE: Vision blurred (GIST patients; [3]): 17 (10%) | TEAE: Vomiting (GIST patients; [3]): 44 (25%) | TEAE: Weight decreased (GIST patients; [3]): 52 (29%) | share of metabolism assigned to CYP2C8 (CYP2C8): 23% | plasma exposure when ripretinib is coadministered with pantoprazole [1]: No clinically significant differences
